The values that follow come from patent US9115116B2, “Dual action inhibitors against histone deacetylases and 3-hydroxy-3-methylglutaryl coenzyme a reductase” (Academia Sinica, priority 2013, dated 2015).

Like-named read-outs stand apart in the source and are kept apart here.

The target of one assay is HMGR (Homo sapiens (Human), UniProt P04035). Nature of the assay: HMG-CoA reductase (HMGR) activity assay, recombinant protein. The assay is classed as biochemical. The following applies: for IC50: mean ± SD of three experiments. The source says: HMG-CoA Reductase (HMGR) Activity Assay.
Sequence of HMGR (P04035 426-888 limits assumed): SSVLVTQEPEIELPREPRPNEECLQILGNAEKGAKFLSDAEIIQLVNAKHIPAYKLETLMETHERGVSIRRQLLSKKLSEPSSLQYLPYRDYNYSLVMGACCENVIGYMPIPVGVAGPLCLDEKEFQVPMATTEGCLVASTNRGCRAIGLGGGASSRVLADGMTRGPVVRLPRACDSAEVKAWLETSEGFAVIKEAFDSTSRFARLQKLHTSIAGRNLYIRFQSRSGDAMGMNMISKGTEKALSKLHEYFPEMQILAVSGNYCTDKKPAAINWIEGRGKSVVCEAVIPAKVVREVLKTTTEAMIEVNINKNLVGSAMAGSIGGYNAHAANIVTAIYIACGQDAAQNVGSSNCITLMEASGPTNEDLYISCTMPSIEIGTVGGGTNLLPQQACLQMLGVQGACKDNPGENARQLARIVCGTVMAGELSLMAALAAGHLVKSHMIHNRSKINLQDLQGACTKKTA
Another assay addresses HDAC1 (Homo sapiens (Human), UniProt Q13547). The experiment in a line: HDAC fluorescent activity assay (HDAC1). The assay is classed as biochemical. Here is the method:
(§1) The HDAC activity was performed using the HDAC fluorescent activity assay kit (BIOMOL, Plymouth Meeting, Pa., USA) according to the manufacturer's instructions. Briefly, recombinant proteins of HDAC1 or HDAC6 were incubated with test compounds, and HDAC reaction was initiated by addition of Fluor-de-Lys substrate. Samples were incubated for 10 min at room temperature, followed by adding developer to stop the reaction. Fluorescence was measured by fluorometric reader with excitation at 360 nm and emission at 460 nm. The HDAC activity was expressed as arbitrary fluorescence units (AFU). […] The half maximal inhibitory concentration (IC50) values for the test compounds were calculated from software SigmaPlot.

Another assay has as its target HDAC2 (Homo sapiens (Human), UniProt Q92769). Nature of the assay: HDAC fluorescent activity assay (HDAC2). The format is biochemical.
For a further assay, the target named is HDAC6 (Homo sapiens (Human), UniProt Q9UBN7). The experiment in a line: HDAC fluorescent activity assay (HDAC6). The format is biochemical. To be noted: mean ± SD of three experiments. The protocol: as §1
Sequence of HDAC6 (Q9UBN7 whole entry, species assumed): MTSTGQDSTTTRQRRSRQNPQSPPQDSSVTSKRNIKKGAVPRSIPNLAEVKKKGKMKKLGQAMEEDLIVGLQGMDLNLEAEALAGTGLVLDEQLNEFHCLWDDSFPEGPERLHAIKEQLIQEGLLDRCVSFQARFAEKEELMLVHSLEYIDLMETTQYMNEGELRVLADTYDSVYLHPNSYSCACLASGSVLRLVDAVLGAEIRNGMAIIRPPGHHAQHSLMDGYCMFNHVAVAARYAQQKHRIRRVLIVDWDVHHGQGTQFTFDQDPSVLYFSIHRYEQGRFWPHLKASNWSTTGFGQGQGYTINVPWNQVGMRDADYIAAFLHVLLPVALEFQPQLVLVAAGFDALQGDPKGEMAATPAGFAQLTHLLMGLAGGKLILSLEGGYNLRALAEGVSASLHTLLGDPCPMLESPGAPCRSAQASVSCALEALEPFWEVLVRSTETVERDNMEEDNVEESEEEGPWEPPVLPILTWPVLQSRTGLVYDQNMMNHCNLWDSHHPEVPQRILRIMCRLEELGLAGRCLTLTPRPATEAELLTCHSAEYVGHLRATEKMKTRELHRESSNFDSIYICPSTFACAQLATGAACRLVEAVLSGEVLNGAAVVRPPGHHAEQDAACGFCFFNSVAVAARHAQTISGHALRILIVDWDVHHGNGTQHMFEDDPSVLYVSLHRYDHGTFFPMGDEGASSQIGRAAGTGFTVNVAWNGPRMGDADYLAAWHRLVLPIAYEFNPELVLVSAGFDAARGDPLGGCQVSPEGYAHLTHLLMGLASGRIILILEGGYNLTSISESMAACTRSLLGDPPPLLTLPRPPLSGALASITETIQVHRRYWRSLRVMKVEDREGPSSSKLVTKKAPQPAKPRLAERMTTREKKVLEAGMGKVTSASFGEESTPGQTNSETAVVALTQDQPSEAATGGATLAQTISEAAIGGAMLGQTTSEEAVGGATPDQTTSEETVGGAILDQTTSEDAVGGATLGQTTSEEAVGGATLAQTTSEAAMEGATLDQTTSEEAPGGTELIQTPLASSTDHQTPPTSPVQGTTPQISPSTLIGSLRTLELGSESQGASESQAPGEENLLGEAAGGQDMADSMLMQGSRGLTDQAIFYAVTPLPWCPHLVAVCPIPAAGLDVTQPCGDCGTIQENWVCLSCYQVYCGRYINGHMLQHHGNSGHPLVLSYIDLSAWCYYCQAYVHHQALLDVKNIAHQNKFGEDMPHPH
The test system of assay [1] is acetylation of histone H3 in A549 lung cancer cells. Nature of the assay: Western blot analysis of histone acetylation in A549 cells. The following applies: SAHA at 5 μM. The assay is classed as cell-based, human. Here is the method: (§2) After treated with test compounds (i.e., compounds of example 1), cells were lysed on ice, and cell lysates were collected and subjected to SDS-PAGE. Immunoblotting was performed using specific antibodies to evaluate the expression of proteins.
(§3) The intracellular histone acetylation status is a direct indicator for class I HDAC inhibition, whereas α-tubulin is the substrate of class II HDAC (i.e., HDAC 6).

For assay [2], the system named is acetylation of α-tubulin in A549 cells. The experiment in a line: Western blot analysis of tubulin acetylation in A549 cells. To be noted: SAHA at 5 μM. The format is cell-based, human. The protocol:
as §2, §3
In general terms: In western blotting, separated proteins are transferred to a membrane and probed.

In assay [3] the target is HMGR activity in A549 lung cancer cells (Homo sapiens (Human), UniProt P04035). Nature of the assay: HMGR activity in whole cell lysates of treated A549 lung cancer cells. To be noted: 1-50 μM, 24 h.
Sequence of HMGR activity in A549 lung cancer cells (P04035 whole entry): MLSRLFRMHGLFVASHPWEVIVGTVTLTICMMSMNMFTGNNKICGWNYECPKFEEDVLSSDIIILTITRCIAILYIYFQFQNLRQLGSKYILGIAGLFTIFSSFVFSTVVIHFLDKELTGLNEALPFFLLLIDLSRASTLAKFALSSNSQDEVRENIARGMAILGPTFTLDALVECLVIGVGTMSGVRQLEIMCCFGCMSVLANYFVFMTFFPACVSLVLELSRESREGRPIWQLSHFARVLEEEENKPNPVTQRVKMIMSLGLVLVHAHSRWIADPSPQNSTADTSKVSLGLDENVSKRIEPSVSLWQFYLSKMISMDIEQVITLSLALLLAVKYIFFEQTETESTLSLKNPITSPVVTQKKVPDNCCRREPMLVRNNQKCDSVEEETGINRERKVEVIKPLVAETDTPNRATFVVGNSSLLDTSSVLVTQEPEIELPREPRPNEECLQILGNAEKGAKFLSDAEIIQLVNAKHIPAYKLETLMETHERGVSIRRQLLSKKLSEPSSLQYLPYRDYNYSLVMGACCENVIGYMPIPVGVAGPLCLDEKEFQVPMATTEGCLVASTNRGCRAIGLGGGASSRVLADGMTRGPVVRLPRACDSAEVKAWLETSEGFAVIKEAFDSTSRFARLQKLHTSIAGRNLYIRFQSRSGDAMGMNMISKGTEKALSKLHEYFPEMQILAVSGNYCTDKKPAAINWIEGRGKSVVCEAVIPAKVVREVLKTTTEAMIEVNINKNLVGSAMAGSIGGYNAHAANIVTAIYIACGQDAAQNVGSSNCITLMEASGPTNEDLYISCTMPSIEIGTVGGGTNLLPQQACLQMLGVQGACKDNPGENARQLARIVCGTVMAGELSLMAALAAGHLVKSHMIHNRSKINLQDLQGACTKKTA
Procedure: A549 cells were cultured in Dulbecco's modified Eagle's medium (DMEM) in a humidified incubator containing 5% CO2/95% air.
The HMGR activity was performed using HMG-CoA reductase assay kit from Sigma-Aldrich with the human recombinant protein or 100 μg total cell lysates from A549 cells. […] HMGR activity under defined assay conditions, containing NADPH and HMG-CoA substrate in a final volume of 0.2 mL of 100 mM potassium phosphatate buffer (120 mM KCI, 1 mM EDTA, 5 mM DTT, pH 7.4), were initiated in the presence or absence (control) of test compounds dissolved in dimethylsulfoxide (DMSO). The rates of NADPH consumption were monitored every 20 seconds, for up to 10 minutes, by spectrophotometer at 37° C. and 340 nm. The HMGR activity was calculated as a percentage of activity compared with the control group at 5 min. The IC50 values were calculated from software SigmaPlot.

Sequence of HDAC2 (Q92769 whole entry, species assumed): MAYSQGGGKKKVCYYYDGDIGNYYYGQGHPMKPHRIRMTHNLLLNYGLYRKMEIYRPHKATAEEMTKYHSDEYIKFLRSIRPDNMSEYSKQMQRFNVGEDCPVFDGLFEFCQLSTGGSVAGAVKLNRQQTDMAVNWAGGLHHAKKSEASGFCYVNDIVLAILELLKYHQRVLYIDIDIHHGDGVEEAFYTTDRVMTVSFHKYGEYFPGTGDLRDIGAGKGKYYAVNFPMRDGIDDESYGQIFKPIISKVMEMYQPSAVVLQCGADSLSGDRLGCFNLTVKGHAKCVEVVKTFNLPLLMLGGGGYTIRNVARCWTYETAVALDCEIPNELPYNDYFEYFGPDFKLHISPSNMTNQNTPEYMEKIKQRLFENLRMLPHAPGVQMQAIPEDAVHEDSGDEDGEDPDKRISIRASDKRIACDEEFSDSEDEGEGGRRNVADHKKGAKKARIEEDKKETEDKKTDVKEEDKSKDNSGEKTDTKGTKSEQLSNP
Sequence of HDAC1 (Q13547 whole entry, species assumed): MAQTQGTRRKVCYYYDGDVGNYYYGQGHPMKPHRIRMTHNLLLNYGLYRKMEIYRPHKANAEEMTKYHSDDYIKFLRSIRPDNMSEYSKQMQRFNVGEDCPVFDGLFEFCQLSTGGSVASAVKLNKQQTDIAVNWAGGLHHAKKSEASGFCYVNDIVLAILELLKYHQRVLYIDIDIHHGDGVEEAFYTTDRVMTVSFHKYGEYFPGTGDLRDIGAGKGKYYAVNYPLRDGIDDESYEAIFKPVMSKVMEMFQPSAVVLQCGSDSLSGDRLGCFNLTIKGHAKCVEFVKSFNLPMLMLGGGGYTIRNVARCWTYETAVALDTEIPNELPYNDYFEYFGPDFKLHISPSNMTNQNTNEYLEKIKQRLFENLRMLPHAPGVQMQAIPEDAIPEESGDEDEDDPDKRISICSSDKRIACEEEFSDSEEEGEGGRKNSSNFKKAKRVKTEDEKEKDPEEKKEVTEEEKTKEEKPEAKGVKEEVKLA

On to `C#Cc1ccc(NC(=O)O[C@H]2C[C@@H](C)C=C3C=C[C@H](C)[C@H](CC[C@@H]4C[C@@H](O[Si](C)(C)C(C)(C)C)CC(=O)O4)[C@H]32)cc1` [6a, (4R,6R)-6-(2-{(1 S,2S,6R,8S,8aR)-8-[(4-ethynylphenyl)carbamoyloxy]-2,6-dimethyl-1,2,6,7,8,8a-hexahydronaphthyl}ethyl)-4-tert-butyldimethylsilyloxy-3,4,5,6-tetrahydro-2H-pyran-2-one], for which the IC50 on HMGR was 36.5 ± 5.3 nM; on HDAC1, 159 ± 8.4 nM; at HDAC2, 463 ± 28 nM; against HDAC6 it was 127 ± 21.5 nM.
Regarding `C#Cc1ccc(CNC(=O)O[C@H]2C[C@@H](C)C=C3C=C[C@H](C)[C@H](CC[C@@H]4C[C@@H](O[Si](C)(C)C(C)(C)C)CC(=O)O4)[C@H]32)cc1` [6b, (4R,6R)-6-(2-{(1S,2S,6R,8S,8aR)-8-[(4-Ethynylbenzyl)carbamoyloxy]-2,6-dimethyl-1,2,6,7,8,8a-hexahydronaphthyl}ethyl)-4-tert-butyldimethylsilyloxy-3,4,5,6-tetrahydro-2H-pyran-2-one], the IC50 turned out to be 53.8 ± 5.2 nM on HMGR, 125 ± 6.3 nM at HDAC1 (mean ± SD of three experiments), 882 ± 9.7 nM against HDAC2 (mean ± SD of three experiments) and 34 ± 4.3 nM against HDAC6.
`C[C@H]1C=C2C=C[C@H](C)[C@H](CC[C@@H]3C[C@@H](O[Si](C)(C)C(C)(C)C)CC(=O)O3)[C@H]2[C@@H](OC(=O)Nc2ccc(-c3cn(CCCCCCC(=O)NO)nn3)cc2)C1` [8a, (4R,6R)-6-(2-{(1S,2S,6R,8S,8aR)-8-[(4-{1-[7-(Hydroxyamino)-7-oxoheptyl]-1H-1,2,3-triazol-4-yl}phenyl)carbamoyloxy]-2,6-dimethyl-1,2,6,7,8,8a-hexahydronaphthyl}ethyl)-4-tert-butyldimethylsilyloxy-3,4,5,6-tetrahydro-2H-pyran-2-one]: the IC50 at HDAC1 is 159 ± 8.4 nM; against HDAC2, 463 ± 28 nM; against HDAC6, 127 ± 21.5 nM. The “histone acetylation (Western blot)” value in assay [1] was “promoted histone and tubulin acetylation in a dose dependent manner”. The “tubulin acetylation (Western blot)” value in assay [2] was “promoted histone and tubulin acetylation in a dose dependent manner”.
For the molecule `C[C@H]1C=C2C=C[C@H](C)[C@H](CC[C@@H]3C[C@@H](O[Si](C)(C)C(C)(C)C)CC(=O)O3)[C@H]2[C@@H](OC(=O)NCc2ccc(-c3cn(CCCCCCC(=O)NO)nn3)cc2)C1` [8b, (4R,6R)-6-(2-{(1S,2S,6R,8S,8aR)-8-[(4-{1-[7-(Hydroxyamino)-7-oxoheptyl]-1H-1,2,3-triazol-4-yl}benzyl)carbamoyloxy]-2,6-dimethyl-1,2,6,7,8,8a-hexahydronaphthyl}ethyl)-4-tert-butyldimethylsilyloxy-3,4,5,6-tetrahydro-2H-pyran-2-one], the IC50 worked out at 125 ± 6.3 nM against HDAC1, 882 ± 9.7 nM at HDAC2 and 34 ± 4.3 nM against HDAC6. Besides, in assay [1], the “histone acetylation (Western blot)” value is “promoted histone and tubulin acetylation in a dose dependent manner”. The “tubulin acetylation (Western blot)” value in assay [2] was “promoted histone and tubulin acetylation in a dose dependent manner”.
For `C[C@H]1C=C2C=C[C@H](C)[C@H](CC[C@@H]3C[C@@H](O[Si](C)(C)C(C)(C)C)CC(=O)O3)[C@H]2[C@@H](OC(=O)NCCCCCCC(=O)NO)C1` [12a, (4R,6R)-6-[2-((1S,2S,6R,8S,8aR)-8-{[7-(Hydroxyamino)-7-oxoheptyl]carbamoyloxy}-2,6-dimethyl-1,2,6,7,8,8a-hexahydronaphthyl)ethyl]-4-tert-butyldimethylsilyloxy-3,4,5,6-tetrahydro-2H-pyran-2-one], the IC50 stood at 122 ± 12.7 nM against HDAC1 (mean ± SD of three experiments), 658 ± 21.1 nM on HDAC2 (mean ± SD of three experiments) and 140 ± 5.7 nM against HDAC6.
For `O=C(CCCCCCC(=O)Nc1ccccc1)NO` [SAHA, suberanilohydroxamic acid, reference compound], the “inhibition of HMGR activity (in words)” value on HMGR (enzyme assay, any dose) is listed as “no inhibition on HMGR activity at any dose”. In assay [1], the “histone acetylation (Western blot)” value is reported as “markedly induced”. Besides, the “tubulin acetylation (Western blot)” value in assay [2] was “markedly induced”. Also, in assay [3], the “reduction of HMGR activity in whole cell lysates (in words)” value is “failed to inhibit HMGR at any dose”.
Take `CC[C@H](C)C(=O)O[C@H]1C[C@@H](C)C=C2C=C[C@H](C)[C@H](CC[C@@H]3C[C@@H](O)CC(=O)O3)[C@H]21` [lovastatin, reference compound]: the “histone acetylation (Western blot)” value in assay [1] is reported as “no effect”. In addition, the “tubulin acetylation (Western blot)” value in assay [2] is on record as “no effect”.

The IC50 is the point on the concentration scale where inhibition reaches its midpoint.
